Source: patent US20260297038A1, “ORTHO-PHTHALALDEHYDE-FUNCTIONALIZED ULTRAVIOLETABSORBERS AND VISIBLE CHROMOPHORES FOR SEMI-PERMANENT TOPICAL APPLICATIONS” (The Regents of the University of Colorado, a body corporate, priority 2023, published 2026)

Columns and labels:
[1] = test system: stratum corneum of excised porcine skin; test: Semi-permanent retention of topical mark on excised porcine skin after repeated washing, and localization after bisection (FIG. 7); settings: for retention of the mark on skin after washing: gel dried 10 minutes, washed after 3 hours, washing procedure repeated five times
Text: FIG. 7 is a set of annotated visible and ultraviolet photographs of excised porcine skin areas exposed to the composition described in Example 8 according to the method of Example 10, labeled o-phthalaldehyde, accompanied by a positive control based on genipin and three negative controls based on a commercially available organic and mineral SPF-30 sunscreens and permanent black marker, taken before the skin was washed, then after one wash, after five washes, and after five washes and bisection.
20 mg of 3,6-dihydroxy-4,5-dimethyl-1,2-benzenedicarboxaldehyde was mixed directly into 230 mg of a gel comprising 79.715% v/v water, 20% v/v ethanol, and 0.285% v/v carbomer 940 and stirred mechanically until a homogenous gel was obtained.
Freshly excised porcine skin was allowed to hydrate in reverse-osmosis purified water for 4 h, then it was cut into rectangular samples and stored for 24 hours in a closed container on top of a paper towel saturated with a solution of 90% water and 10% glycerol. The stratum corneum was wiped with a cotton gauze pad saturated with an aqueous solution of lysine at a concentration of 2 wt %. The gel composition prepared as described in […] was scooped onto a spatula, which was used to apply a thin layer of the gel in a circle of approximately 1-cm diameter on the stratum corneum. After allowing the gel to dry on the skin for 10 minutes, the skin sample was returned to the closed container with the saturated paper towel to allow the skin to remain hydrate while the reaction continued to develop. After 3 hours, the skin was removed and washed liberally by scrubbing the skin with a loofah saturated with a soap solution of 10% alcanox in water until a foam lather was formed, rinsed with reverse-osmosis water, and wiped with a paper towel saturated with a 70% isopropanol solution, and finally patted dry with a paper towel. This washing procedure was repeated five times.

[2] = Ultraviolet-visible absorption spectra of solutions of o-phthalaldehyde ultraviolet absorbers vs the parent carboxylic acids (FIG. 4); assay type: physicochemical; settings: solution; for visible absorption introduced by the 3-(3,4-diformylphenyl)propyl moiety: compared with corresponding carboxylic acids
Text: FIG. 4 is a set of graphs of the ultraviolet-visible absorption spectra of solutions of (a) 4-((3-(2H-benzo[d][1,2,3]triazol-2-yl)-2-hydroxy-5-methylbenzyl)oxy)phthalaldehyde, prepared according to the process described in example 3, and 3-(3-(benzotriazole-2-yl)-5-tert-butyl-4-hydroxyphenyl)propanoic acid, (b) 3-(3-(2H-benzo[d][1,2,3]triazol-2-yl)-5-(tert-butyl)-4-hydroxyphenyl)propanoate, prepared according to the process described in Example 4, and 2-(4-diethylamino-2-hydroxybenzoyl)benzoic acid, (c) 3-(3,4-diformylphenyl)propyl 3-(4-methoxyphenyl)acrylate, prepared according to the process described in example 5, and 4-methoxycinnamic acid.

## Cc1c(C)c(O)c(C=O)c(C=O)c1O [3,6-dihydroxy-4,5-dimethyl-1,2-benzenedicarboxaldehyde]
[1]; excessively washed, bisected through to the subcutis
  localization / penetration in skin layers: localized in the stratum corneum and did not penetrate to lower epidermal or dermal layers of the skin
[1]
  retention of the mark on skin after washing: retained

## CC(C)(C)c1cc(CCC(=O)OCCCc2ccc(C=O)c(C=O)c2)cc(-n2nc3ccccc3n2)c1O [Example 3, 3-(3,4-diformylphenyl)propyl 3-(3-(2H-benzo[d][1,2,3]triazol-2-yl)-5-(tert-butyl)-4-hydroxyphenyl)propanoate]
[2]
  alteration of the absorption profiles of the ultraviolet-absorbing moieties by the 3-(3,4-diformylphenyl)propyl moiety: only minor alteration of the absorption profiles
  visible absorption introduced by the 3-(3,4-diformylphenyl)propyl moiety: without introducing substantial visible absorption

## CCN(CC)c1ccc(C(=O)c2ccccc2C(=O)OCCCc2ccc(C=O)c(C=O)c2)c(O)c1 [Example 4, 3-(3,4-diformylphenyl)propyl 2-(4-(diethylamino)-2-hydroxybenzoyl)benzoate]
[2]
  alteration of the absorption profiles of the ultraviolet-absorbing moieties by the 3-(3,4-diformylphenyl)propyl moiety: only minor alteration of the absorption profiles
  visible absorption introduced by the 3-(3,4-diformylphenyl)propyl moiety: without introducing substantial visible absorption

## COc1ccc(C=CC(=O)OCCCc2ccc(C=O)c(C=O)c2)cc1 [Example 5, 3-(3,4-diformylphenyl)propyl 3-(4-methoxyphenyl)acrylate]
[2]
  alteration of the absorption profiles of the ultraviolet-absorbing moieties by the 3-(3,4-diformylphenyl)propyl moiety: only minor alteration of the absorption profiles
  visible absorption introduced by the 3-(3,4-diformylphenyl)propyl moiety: without introducing substantial visible absorption

## COC(=O)C1=CO[C@@H](O)[C@@H]2C(CO)=CC[C@H]12 [genipin, reference compound]
[1]
  retention of the mark on skin after washing: retained
